{"source": "patent US20220047678A1", "about": "“Combination Therapy for Treatment of Liver Disease” (Gilead Sciences, Inc., priority 2020, published 2022)", "key": {"[1]": {"experiment": "Safety assessments (adverse events, laboratory abnormalities, vital signs) in 24-week open-label clinical study", "assay_type": "in vivo, human", "text": "This is a proof of concept, open-label study evaluating the safety, tolerability, and efficacy of monotherapy and combination regimens in subjects with NASH. Subjects meeting the study's entry criteria are randomly assigned in a 1:1:1:1:1 ratio to 1 of 5 treatment groups, with approximately 20 subjects in each group, as shown in the FIG. 2. Randomization is stratified by the presence or absence of type 2 diabetes mellitus, as determined by medical history or based on the Screening laboratory values if previously undiagnosed (hemoglobin A1c [HbA1c]≥6.5%). The study may last up to 35 weeks, which includes a 2-week Screening period, a 2 week Pre-Treatment period, up to a 24-week Treatment period, and a 7-week Follow-Up period.\nStudy drug dosing and administration is as follows, based on treatment group randomization as summarized in FIG. 2: • Treatment Group A: Semaglutide administered subcutaneously with pre-filled pen-injector once weekly. • Treatment Group B: Semaglutide administered subcutaneously with pre-filled pen-injector once weekly, one firsocostat 20 mg tablet, administered orally once daily without regard to food. • Treatment Group C: Semaglutide administered subcutaneously with pre-filled pen-injector once weekly, one cilofexor 30 mg tablet, administered orally once daily without regard to food. • Treatment Group D: Semaglutide administered subcutaneously with pre-filled pen-injector once weekly, one cilofexor 100 mg tablet, administered orally once daily without regard to food. • Treatment Group E: Semaglutide administered subcutaneously with pre-filled pen-injector once weekly, one firsocostat 20 mg tablet administered orally once daily and one cilofexor 30 mg tablet administered orally once daily, both without regard to food.\nSemaglutide was administered by subcutaneous injection once weekly with a prefilled pen-injector and was initiated at a starting dose of […], which was increased at 4-week intervals (to 0.5 mg, 1.0 mg, and 1.7 mg) until the recommended target dose of 2.4 mg was reached (from week 17 onwards). Patients who could not tolerate the planned dose-escalation schedule were encouraged to extend any single dose step for a maximum of one additional week, and to re-attempt dose escalation to 2.4 mg at least once. Cilofexor and firsocostat were given orally once daily with or without food.\nSafety assessments included adverse events, clinical laboratory assessments, vital signs, electrocardiograms (ECG), and physical examination. Clinical and laboratory adverse events were coded using the Medical Dictionary for Regulatory Activities (MedDRA), version 23.0.\nSafety analyses were performed on the safety analysis set, which included all patients who took at least one dose of any study drug. Efficacy analyses were performed on the full analysis set (FAS), which included all randomized patients who received at least one dose of any study drug. Since all dosed subjects were randomized, these two analysis sets included the same patients."}, "[2]": {"experiment": "Serum lipids, change from baseline to week 24", "assay_type": "in vivo, human", "details": "LS mean", "procedure": "In general, subjects fast (no food or drink, except water) for approximately 10 hours prior to the blood sample collection.\nAdditional tests include HIV-1 (reflex to HIV-1 RNA), HBV (HBsAg), HCV (reflex to HCV RNA) serology, homeostasis model assessment of Insulin resistance (HOMA-IR, based on fasting glucose and insulin), eGFR as calculated by MDRD, HbA1c, C-peptide, calcitonin, insulin, lipid panel, genomic sample collection, ELF™ Test, and FibroTest®. Biomarker tests include, but are not limited to C-reactive protein (CRP), NMR LipoProfile®, apolipoproteins, and adiponectin.\nImaging assessments (MRI-PDFF, liver stiffness by 2-D magnetic resonance elastography [MRE] and TE) were conducted at screening (or within 4 weeks prior to screening), and at weeks 12 and 24. TE was performed by experienced operators, and MRI-PDFF and MRE images were analyzed by a central reader as previously described [Patel et al. Hepatology. 2020; 72(1):58-71; Loomba et al. Gastroenterology. 2018; 155(5):1463-1473; Loomba et al. Hepatology. 2020 Nov. 10. doi: 10.1002/hep.31622]. Serum samples were collected at screening, baseline, and every 4 weeks through to week 24 for clinical laboratory values; blood biomarkers were assessed at screening, baseline, and weeks 12 and 24.\nAll protocol-defined, efficacy analyses were exploratory in nature and descriptive statistics are provided. Comparative analyses between combination regimens and semaglutide monotherapy were conducted post-hoc. For evaluation of changes from baseline to week 24, analysis of covariance (ANCOVA) with adjustment for baseline value and diabetes status was used, and least-squares (LS) means, LS mean differences, associated 95% confidence intervals (CI), and p-values were calculated. Proportions of binary responders were compared by Fisher's exact test."}}}
{"smiles": "CC[C@H](C)[C@H](NC(=O)[C@H](Cc1ccccc1)NC(=O)[C@H](CCC(=O)O)NC(=O)[C@H](CCCCNC(=O)COCCOCCNC(=O)COCCOCCNC(=O)CC[C@H](NC(=O)CCCCCCCCCCCCCCCCC(=O)O)C(=O)O)NC(=O)[C@H](C)NC(=O)[C@H](C)NC(=O)[C@H](CCC(N)=O)NC(=O)CNC(=O)[C@H](CCC(=O)O)NC(=O)[C@H](CC(C)C)NC(=O)[C@H](Cc1ccc(O)cc1)NC(=O)[C@H](CO)NC(=O)[C@H](CO)NC(=O)[C@@H](NC(=O)[C@H](CC(=O)O)NC(=O)[C@H](CO)NC(=O)[C@@H](NC(=O)[C@H](Cc1ccccc1)NC(=O)[C@@H](NC(=O)CNC(=O)[C@H](CCC(=O)O)NC(=O)C(C)(C)NC(=O)[C@@H](N)Cc1cnc[nH]1)[C@@H](C)O)[C@@H](C)O)C(C)C)C(=O)N[C@@H](C)C(=O)N[C@@H](Cc1c[nH]c2ccccc12)C(=O)N[C@@H](CC(C)C)C(=O)N[C@H](C(=O)N[C@@H](CCCNC(=N)N)C(=O)NCC(=O)N[C@@H](CCCNC(=N)N)C(=O)NCC(=O)O)C(C)C", "note": "[Semaglutide 2.4 mg, Semaglutide]", "values": [{"measurement": "Abdominal distension", "setting": "[1]; human, in vivo", "value": 0, "unit": "n"}, {"measurement": "Gastroenteritis", "setting": "[1]; human, in vivo", "value": 0, "unit": "n"}, {"measurement": "Gastroesophageal reflux disease", "setting": "[1]; human, in vivo", "value": 0, "unit": "n"}, {"measurement": "Hypoglycaemia", "setting": "[1]; human, in vivo", "value": 0, "unit": "n"}, {"measurement": "Laboratory abnormalities, Grade 3", "setting": "[1]; human, in vivo", "value": 0, "unit": "n"}, {"measurement": "Laboratory abnormalities, Grade 4", "setting": "[1]; human, in vivo", "value": 0, "unit": "n"}, {"measurement": "Pruritus (adverse event of interest)", "setting": "[1]; human, in vivo", "value": 0, "unit": "n"}, {"measurement": "Serious adverse events (nature)", "setting": "[1]; human, in vivo", "value": "grade 3 diarrhea and vomiting"}, {"measurement": "Death", "setting": "[1]; patients", "value": 0, "unit": "n"}, {"measurement": "HDL cholesterol, least squares mean change from baseline to week 24", "setting": "[2]", "value": -1, "unit": "mg/dL"}, {"measurement": "LDL cholesterol, least squares mean change from baseline to week 24", "setting": "[2]", "value": -9, "unit": "mg/dL"}, {"measurement": "Total cholesterol, least squares mean change from baseline to week 24", "setting": "[2]", "value": -15, "unit": "mg/dL"}, {"measurement": "Triglycerides, least squares mean change from baseline to week 24", "setting": "[2]", "value": -28, "unit": "mg/dL"}, {"measurement": "VLDL cholesterol, least squares mean change from baseline to week 24", "setting": "[2]", "value": -7, "unit": "mg/dL"}]}
